Several values for one entry are separate records, joined by “and”; a condition that tells them apart may be missing. Equal entries are not always repeated.
Test system: 743489-274-T-PDC complex spheroid viability
Test: Anticancer human tumor 743489-274-T-PDC patient-derived renal cell carcinoma cell line growth inhibition
Settings: for viability, T/C: stronger effect = lower value
Excerpt: Multicellular complex tumor spheroid response to LSD1 Inhibitor Iadademstat in combination with a variety of drugs and investigational agents in selected tumor cell lines
The current study was undertaken to assess response to LSD1 inhibitors in combination with standard-of-care drugs and investigational agents in solid tumor complex spheroid models as well as in the K-562 leukemia. Complex spheroids include a stromal component modeled by human endothelial cells (HUVEC) and fibroblasts modeled by human mesenchymal stem cells (MSCs). The concentration ranges selected for each drug and investigational agent were based upon clinically achievable concentrations if the clinical Cmax of the agent was known.
Compounds. The drugs and investigational agents used in this study are listed on Table 1. All of the agents used, including staurosporine (NSC755774) and gemcitabine (NSC613327), were obtained from the Developmental Therapeutics Program, NCI. FDA-approved anticancer drugs are available from the NCI at http://dtp.nci.nih.gov/branches/dscb/oncology_drugset_explanation.html. Drugs and investigational agents were >95% pure by proton nuclear magnetic resonance (NMR) and liquid chromatography/mass spectrometry (LC/MS). Stock solutions were prepared at 400x in DMSO, stored at -70 degrees C, and diluted in fresh medium prior to their use. The final concentration of DMSO in cell culture wells never exceeded 0.25% (v/v). The FDA-approved anticancer drug set is available from the Developmental Therapeutics Program at https://dtp.cancer.gov/organization/dscb/obtaining/available_plates.htm. All drugs and investigational agents were tested over a range starting from a high concentration at or near the clinical Cmax and decreasing in half-log increments. If the clinical Cmax for an agent had not been determined, the highest concentration tested was 10 microM.
Cell Lines. The patient-derived cancer cell (PDC) lines: 292921-168-R-J2-PDC, K24384-001-R-PDC, and 521955-158-R2-J5-PDC pancreatic carcinomas, 556581-035-R-J1 ovarian carcinoma, 324938-238-R-J1-PDC, 855422-203-R-J1-PDC and 883617-216-R-J1-PDC urothelial bladder carcinomas, 743489-274-T-PDC renal cell carcinoma, 138582-R-J1 Merkel cell tumor, K60290-347-R-J1 and K57222-313-R-J1-PDC glioblastomas, 653999-131-R-J2-PDC, LG0703-F948-PDC, and 349418-098-R-PDC non-small cell lung carcinomas, 885512-296-R-J2-PDC, 171881-019-R-J1-PDC breast carcinomas and 186277-243-T-J2-PDC and 233499-124-R-J2-PDC colon carcinomas were obtained from the NCI Patient-Derived Models Repository (PDMR, https://pdmr.cancer.gov). The established cell lines NCI/ADR-RES (RRID:CVCL_14520 and OVCAR-5 (RRID:CVCL_1628) ovarian carcinomas, 786-O (RRID:CVCL_1051) and A498 (RRID:CVCL_A498) renal cell carcinoma, NCI-H211 (ATCC, cat. CRL-5824; RRID:CVCL_1529), NCI-H196 (ATCC, cat. CRL-5823, RRID:CVCL_1509), SW 1271 (ATCC, cat. CRL-2177, RRID:CVCL_1716) and NCI-H1876 (ATCC, cat. CRL-5902, RRID:CVCL_1503) small cell lung carcinomas, MDA-MB-231 (RRID:CVCL_0062) and MDA-MB-468 (RRID:CVCL_0419)breast carcinomas (10-12). Pooled donor human umbilical vein endothelial cells (HUVEC, Lonza, cat. CC-2519) and human mesenchymal stem cells (hMSC, Lonza, cat. PT-2501) were purchased from Lonza (Walkersville, MD).
Cell Culture. All cells were maintained in an incubator at 37 degrees C and 5% CO2 with 95% humidity. The PDC lines were cultured according to standard operating procedures established by the NCI PDMR (https://pdmr.cancer.gov). Briefly all PDCs were thawed and cultured in Matrigel-coated flasks prepared with a working solution of 1X Ham's F-12 nutrient mix, without supplementation (Invitrogen, Waltham, MA, cat. 11765054), 100 U/mL penicillin-streptomycin (Invitrogen, cat. 15140122), and 2.5% Matrigel (Corning Inc., Corning, NY, cat. 354248) for the first three passages. […]
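Also: spheroids exposed to compounds for 7 days before readout.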
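For viability, T/C in this document: 100% = DMSO vehicle control wells.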

SMILES	IC50 (curve of compound)	viability, T/C (compound 0.00316 µM)	viability, T/C (compound 0.01 µM)	viability, T/C (compound 0.0316 µM)	viability, T/C (compound 0.1 µM)	viability, T/C (compound 0.316 µM)	viability, T/C (compound 1 µM)	viability, T/C (compound 0.00949 µM)	viability, T/C (compound 0.03 µM)	viability, T/C (compound 0.0949 µM)	viability, T/C (compound 0.3 µM)	further results
CC(C)CC(NC(=O)CNC(=O)c1cc(Cl)ccc1Cl)B1OC(=O)CC(CC(=O)O)(C(=O)O)O1 (stereo not given)	> 100 nM and 84.7 nM	99.5% and 94.1%	84.9% and 83.3%	84% and 76.2%	58.8% and 44.4%	–	–	–	–	–	–	viability, T/C (compound 0.000316 µM): 97.9% and 109%; viability, T/C (compound 0.001 µM): 89.1% and 112%
CC(C)c1c(-c2ccccc2)nc2c(C#N)c[nH]n2c1=O	> 10000 nM	–	–	106% and 94.8%	100% and 102%	86.4% and 102%	96% and 107%	–	–	–	–	viability, T/C (compound 3.16 µM): 93.2% and 93.5%
CC1COCCN1c1cc(C2(S(C)(=N)=O)CC2)nc(-c2ccnc3[nH]ccc23)n1 (stereo not given)	> 10000 nM	–	–	93.4% and 107%	112% and 104%	99.9% and 87%	93.9% and 91.4%	–	–	–	–	viability, T/C (compound 3.16 µM): 100% and 90.3%; viability, T/C (compound 10 µM): 81.3% and 63.8%
CC[C@@]1(O)C(=O)OCc2c1cc1n(c2=O)Cc2cc3c(CN(C)C)c(O)ccc3nc2-1	> 100 nM	96.5% and 72.1%	86.4% and 76.7%	75.1% and 60.3%	63.7% and 57.8%	–	–	–	–	–	–	viability, T/C (compound 0.000316 µM): 103% and 92.9%; viability, T/C (compound 0.001 µM): 104% and 83.4%
CCc1c2c(nc3ccc(O)cc13)-c1cc3c(c(=O)n1C2)COC(=O)[C@]3(O)CC	20.7 nM and 5.36 nM	–	–	–	–	–	–	61.9% and 44.5%	40.2% and 45.4%	45.4% and 44.3%	43.2% and 39.3%	viability, T/C (compound 0.000949 µM): 88.1% and 71.3%; viability, T/C (compound 0.003 µM): 68% and 54.2%
COc1cc(C2c3cc4c(cc3C(OC3OC5COC(C)OC5C(O)C3O)C3COC(=O)C23)OCO4)cc(OC)c1O (stereo not given)	> 3000 nM	–	–	–	–	–	–	98.2% and 111%	114% and 112%	70.3% and 81.1%	92.8% and 99.4%	viability, T/C (compound 0.949 µM): 98.9% and 88.8%; viability, T/C (compound 3 µM): 82% and 91.5%
COc1cc(Nc2ncc3c(n2)-c2ccc(Cl)cc2C(c2c(F)cccc2OC)=NC3)ccc1C(=O)O	> 1000 nM	102% and 91.3%	91.3% and 102%	89.6% and 92%	92.6% and 90.8%	94.2% and 87.2%	91.7% and 67.7%	–	–	–	–	–
COc1ccc([C@@H](O)c2cc(-c3ncnc4cc(N5CCOCC5)ccc34)c(F)cc2Cl)nn1	1730 nM and 753 nM	–	–	108% and 93.4%	100% and 95.8%	90.5% and 72.5%	59.4% and 43.6%	–	–	–	–	viability, T/C (compound 3.16 µM): 38.7% and 21.3%; viability, T/C (compound 10 µM): 20.8% and 19.4%
Cn1ncnc1C1c2n[nH]c(=O)c3cc(F)cc(c23)NC1c1ccc(F)cc1 (stereo not given)	> 100 nM	90.2% and 98.6%	95.9% and 90.8%	93.7% and 92.8%	91.4% and 84.3%	–	–	–	–	–	–	viability, T/C (compound 0.000316 µM): 88.5% and 99.7%; viability, T/C (compound 0.001 µM): 100% and 110%
NC1CC1c1ccc(-c2cccc(O)c2)cc1 (stereo not given)	–	–	–	–	–	103% [middle of 25 runs]	–	–	–	–	–	IC50 (compound alone, run of 12/07/2021): > 10000 nM
NC1CCC(NC2CC2c2ccccc2)CC1 (stereo not given)	–	–	–	–	–	105% and 107%	–	–	–	–	–	IC50 (compound alone, run of 11/29/2021): > 10000 nM
NS(=O)(=O)OCC1CC(n2ccc3c(NC4CCc5ccccc54)ncnc32)CC1O (stereo not given)	> 3000 nM	–	–	–	–	–	–	90.9% and 95.7%	95.9% and 111%	111% and 103%	118% and 135%	viability, T/C (compound 0.949 µM): 116% and 125%; viability, T/C (compound 3 µM): 121% and 101%
Nc1ccccc1NC(=O)c1ccc(CNC(=O)OCc2cccnc2)cc1	1160 nM and 758 nM	–	–	–	–	–	–	85.4% and 102%	89.2% and 78%	95.2% and 79.4%	78.8% and 67.1%	viability, T/C (compound 0.949 µM): 54.2% and 47.6%; viability, T/C (compound 3 µM): 32.6% and 26.4%
Nc1ccn(C2OC(CO)C(O)C2(F)F)c(=O)n1 (stereo not given)	> 300 nM	–	–	–	–	–	–	73% and 96.8%	73.7% and 58%	71.6% and 64.1%	65.2% and 63.2%	viability, T/C (compound 0.000949 µM): 82.7% and 61.8%; viability, T/C (compound 0.003 µM): 85.6% and 60.9%
Nc1ncn(C2CC(O)C(CO)O2)c(=O)n1 (stereo not given)	> 1000 nM	105% and 90.1%	98% and 100%	81% and 101%	96.1% and 84.5%	96% and 94.3%	84.3% and 97.7%	–	–	–	–	–
O=C(c1cc(Cc2n[nH]c(=O)c3ccccc23)ccc1F)N1CCN(C(=O)C2CC2)CC1	> 10000 nM	–	–	95.3% and 101%	88.2% and 113%	102% and 108%	108%	–	–	–	–	viability, T/C (compound 3.16 µM): 94.5% and 93.2%; viability, T/C (compound 10 µM): 83% and 82.5%

Further lines, with some results ahead:

IC50 (curve of compound)	SMILES	viability, T/C (compound 0.00316 µM)	viability, T/C (compound 0.01 µM)	viability, T/C (compound 0.0316 µM)	viability, T/C (compound 0.1 µM)	viability, T/C (compound 0.316 µM)	viability, T/C (compound 1 µM)	viability, T/C (compound 0.00949 µM)	viability, T/C (compound 0.03 µM)	viability, T/C (compound 0.0949 µM)	viability, T/C (compound 0.3 µM)	further results
7.31 nM and 8.09 nM	CC(C)CC(NC(=O)C(Cc1ccccc1)NC(=O)c1cnccn1)B(O)O (stereo not given)	106% and 94.2%	31% and 40%	26.9% and 31.4%	24.4% and 27.6%	–	–	–	–	–	–	viability, T/C (compound 0.000316 µM): 102% and 104%; viability, T/C (compound 0.001 µM): 93.9% and 105%
> 10000 nM	CC1(C)CCC(CN2CCN(c3ccc(C(=O)NS(=O)(=O)c4ccc(NCC5CCOCC5)c([N+](=O)[O-])c4)c(Oc4cnc5[nH]ccc5c4)c3)CC2)=C(c2ccc(Cl)cc2)C1	–	–	90.8% and 100%	108%	104% and 109%	113% and 111%	–	–	–	–	viability, T/C (compound 3.16 µM): 128% and 106%; viability, T/C (compound 10 µM): 120% and 122%
> 1000 nM	CC1COCCN1c1cc(-c2ccnn2C)c2ccnc(-c3ccn[nH]3)c2n1 (stereo not given)	102% and 81.5%	107%	78.8% and 87.5%	70.9% and 71.9%	71.5% and 56.4%	64.2% and 53.2%	–	–	–	–	–
> 3000 nM	CCN(c1cc(-c2ccc(CN3CCOCC3)cc2)cc(C(=O)NCc2c(C)cc(C)[nH]c2=O)c1C)C1CCOCC1	–	–	–	–	–	–	106% and 107%	94.5% and 105%	87.8% and 92.8%	97.2% and 111%	viability, T/C (compound 0.949 µM): 98.5% and 105%; viability, T/C (compound 3 µM): 95.9% and 105%
> 300 nM	Nc1ncn(C2CC(O)C(CO)S2)c(=O)n1 (stereo not given)	–	–	–	–	–	–	90.8% and 92%	80.2% and 82.5%	89.9% and 81.5%	88.7% and 75.2%	viability, T/C (compound 0.000949 µM): 106% and 96.8%; viability, T/C (compound 0.003 µM): 108% and 96.2%
1610 nM and 1010 nM	O=C(C=Cc1cccc(S(=O)(=O)Nc2ccccc2)c1)NO	–	–	–	–	–	–	89.9% and 92.2%	83.1% and 89.3%	76.4% and 75%	66.4% and 65%	viability, T/C (compound 0.949 µM): 55.4% and 51.6%; viability, T/C (compound 3 µM): 43.6% and 35.7%
> 1000 nM	O=C(C=Cn1cnc(-c2cc(C(F)(F)F)cc(C(F)(F)F)c2)n1)NNc1cnccn1	106% and 109%	108% and 91%	121% and 117%	115% and 97.5%	94.2% and 86.3%	81.2% and 73.2%	–	–	–	–	–

From PubChem BioAssay AID1918942 (Molecular Pharmacology Branch, DTP, NCI, 2023)
